In patent US4876266A, “1-aralkyl-2-mercaptoimidazolines as DBH inhibitors” (SmithKline Beckman Corporation, priority 1987, dated 1989):

Assays:
[1] = tested on: DBH; conditions: significance of the observation is uncertain; cited from earlier work
[2] = biological target: T1, dopamine-β-hydroxylase (DBH) (Bos taurus, UniProt P15101); test: in vitro DBH inhibition, conversion of tyramine to octopamine in the presence of DBH, spectrophotometric absorbance at 330 nm; assay type: biochemical; conditions: concentration of compound at which DBH activity was halved
T1 sequence (P15101 1-610): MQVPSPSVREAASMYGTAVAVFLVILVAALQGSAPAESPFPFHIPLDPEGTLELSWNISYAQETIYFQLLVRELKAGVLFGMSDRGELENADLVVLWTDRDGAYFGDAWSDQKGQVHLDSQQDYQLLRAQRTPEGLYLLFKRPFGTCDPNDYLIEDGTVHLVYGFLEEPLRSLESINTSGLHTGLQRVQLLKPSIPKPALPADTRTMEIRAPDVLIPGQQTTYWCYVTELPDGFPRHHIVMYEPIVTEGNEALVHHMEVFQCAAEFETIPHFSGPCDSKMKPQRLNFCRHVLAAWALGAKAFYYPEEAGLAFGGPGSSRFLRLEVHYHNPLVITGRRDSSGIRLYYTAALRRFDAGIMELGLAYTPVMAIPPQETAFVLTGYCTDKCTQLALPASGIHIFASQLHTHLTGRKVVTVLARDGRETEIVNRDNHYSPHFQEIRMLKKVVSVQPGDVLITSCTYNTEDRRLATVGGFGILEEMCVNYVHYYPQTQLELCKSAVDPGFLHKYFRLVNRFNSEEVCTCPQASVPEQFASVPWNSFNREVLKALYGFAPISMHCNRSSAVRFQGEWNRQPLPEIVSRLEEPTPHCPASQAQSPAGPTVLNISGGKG
Method: Listed in Table III are the compounds of the invention that were tested for in vitro DBH inhibition by a standard procedure for assaying conversion of tyramine to octopamine in the presence of DBH. J. J. Pisano, et al., Biochim. Biophys. Acta, 43, 566-568 (1960). Octopamine was assayed following sodium periodate oxidation to p-hydroxybenzaldehyde by measuring spectrophotometric absorbance at 330 nm.

[3] = tested on: spontaneously hypertensive rats; test: mean arterial blood pressure in spontaneously hypertensive rats, indwelling cannulae in the tail arteries; assay type: in vivo, rat; conditions: 50 mg/kg orally; within approximately
Method: Further, spontaneously hypertensive rats were treated with a suspension or solution of 1-(3,5-difluorobenzyl)-2-mercaptoimidazoline at a dose of 50 mg/kg orally and mean arterial blood pressure was monitored for 260 minutes using indwelling cannulae in the tail arteries. […] Maximum blood pressure reduction was approximately 15 to 20 mm Hg.

SMILES | DBH levels in treated patients [1] | IC50 [2] [µM] | time after treatment to significant blood pressure reductions [3] [min]
CC(N)(Cc1ccc(O)c(O)c1)C(=O)O (stereo not drawn) [alpha-methyl-DOPA] | lowered DBH levels | – | –
S=C1NCCN1Cc1ccccc1 [1-Benzyl-2-mercaptoimidazoline] | – | 10 | –
Fc1cc(F)cc(CN2CCN=C2S)c1 [1-(3,5-Difluorobenzyl)-2-mercaptoimidazoline] | – | 1.2 | ≤ 30
COC(=O)[C@H]1[C@H]2C[C@@H]3c4[nH]c5cc(OC)ccc5c4CCN3C[C@H]2C[C@@H](OC(=O)c2cc(OC)c(OC)c(OC)c2)[C@@H]1OC [reserpine] | lowered DBH levels | – | –
